What was measured:
[1] = log P by HPLC on reversed-phase column (C 18), EEC Directive 79/831 Annex V.A8; type: physicochemical; details: 40° C., 0.1% aqueous formic acid and acetonitrile, linear gradient 10% to 90% acetonitrile
Procedure: In table 1, the log P values were determined in accordance with EEC Directive 79/831 Annex V.A8 by HPLC (High Performance Liquid Chromatography) on a reversed-phase column (C 18), using the method described below:
Temperature: 40° C.; Mobile phases: 0.1% aqueous formic acid and acetonitrile; linear gradient from 10% acetonitrile to 90% acetonitrile.
Calibration was carried out using unbranched alkan-2-ones (comprising 3 to 16 carbon atoms) with known log P values (determination of the log P values by the retention times using linear interpolation between two successive alkanones). lambda-max-values were determined using UV-spectra from 200 nm to 400 nm and the peak values of the chromatographic signals.

Septoria tritici = assay: In vivo preventive test on Septoria tritici (wheat); details: preventive spray, 500 ppm of active ingredient, grading 24 days after contamination
Procedure: Wheat plants (“Scipion” variety), sown in starter cups on a 50/50 peat soil pozzolana substrate and grown at 22° C., are treated at the 1 leaf stage (10 cm height) by spraying with the active ingredient prepared as described above. Plants, used as controls, are treated with the mixture of acetone/tween/DMSO/water not containing the active material. After 24 hours, the plants are contaminated by spraying the leaves with an aqueous suspension of cryopreserved Septoria tritici spores (500 000 spores per mL). The contaminated wheat plants are incubated for 72 hours at 18° C. and at 100% relative humidity, and then for 21 days at 90% relative humidity. Grading (% of efficacy) is carried out 24 days after the contamination, in comparison with the control plants.

Puccinia recondita = assay: In vivo preventive test on Puccinia recondita (brown rust on wheat); details: preventive spray, 500 ppm of active ingredient, grading 12 days after contamination
Procedure: Wheat plants (“Scipion” variety), sown in starter cups on a 50/50 peat soil pozzolana substrate and grown at 22° C., are treated at the 1 leaf stage (10 cm height) by spraying with the active ingredient prepared as described above. Plants, used as controls, are treated with the mixture of acetone/tween/DMSO/water not containing the active material. After 24 hours, the plants are contaminated by spraying the leaves with an aqueous suspension of Puccinia recondita spores (100 000 spores per mL). The spores are collected from an infected plant and are suspended in water containing 2.5 mL/L of Tween 80 at 10%. The contaminated wheat plants are incubated for 24 hours at 20° C. and at 100% relative humidity, and then for 10 days at 20° C. and at 70-80% relative humidity. Grading (% of efficacy) is carried out 12 days after the contamination, in comparison with the control plants.

Pyrenophora teres = assay: In vivo preventive test on Pyrenophora teres (barley); details: preventive spray (DMF/alkylaryl polyglycol ether), 500 ppm of active ingredient, evaluated 7-9 days after inoculation
Procedure: Solvent: 49 parts by weight of N,N-dimethylformamide Emulsifier: 1 part by weight of alkylaryl polyglycol ether To produce a suitable preparation of active compound, 1 part by weight of active compound is mixed with the stated amounts of solvent and emulsifier, and the concentrate is diluted with water to the desired concentration. To test for preventive activity, young plants are sprayed with the preparation of active compound at the stated rate of application. One day after this treatment, the plants are inoculated with an aqueous spore suspension of Pyrenophora teres. The plants remain for 48 hours in an incubation cabinet at 22° C. and a relative atmospheric humidity of 100%. Then the plants are placed in a greenhouse at a temperature of approximately 20° C. and a relative atmospheric humidity of approximately 80%.

Sphaerotheca fuliginea = assay: In vivo preventive test on Sphaerotheca fuliginea (powdery mildew on cucurbits); details: gherkin plants, preventive spray, 500 ppm of active ingredient, grading 12 days after contamination
Procedure: Gherkin plants (“Vert petit de Paris” variety), sown in starter cups on a 50/50 peat soil-pozzolana substrate and grown at 24° C., are treated at the Z11 cotyledon stage by spraying with the active ingredient prepared as described above. Plants, used as controls, are treated with the mixture of acetone/tween/DMSO/water not containing the active material. After 24 hours, the plants are contaminated by spraying the cotyledons with an aqueous suspension of Sphaerotheca fuliginea spores (100 000 spores per mL). The spores are collected from infected plants. The contaminated gherkin plants are incubated at about 20° C. and at 70-80% relative humidity. Grading (% of efficacy) is carried out 12 days after the contamination, in comparison with the control plants.

Alternaria solani = assay: In vivo preventive test on Alternaria solani (tomato); details: preventive spray, 500 ppm of active ingredient, evaluated 7 days after inoculation
Procedure: Solvent: 49 parts by weight of N,N-dimethylformamide Emulsifier: 1 part by weight of alkylaryl polyglycol ether To produce a suitable preparation of active compound, 1 part by weight of active compound is mixed with the stated amounts of solvent and emulsifier, and the concentrate is diluted with water to the desired concentration. To test for preventive activity, young plants are sprayed with the preparation of active compound at the stated rate of application. One day after this treatment, the plants are inoculated with an aqueous spore suspension of Alternaria solani. The plants remain for one day in an incubation cabinet at approximately 22° C. and a relative atmospheric humidity of 100%. Then the plants are placed in an incubation cabinet at approximately 20° C. and a relative atmospheric humidity of 96%.

Compound	logP [1]	Efficacy (Septoria tritici)	Efficacy (Puccinia recondita)	Efficacy (Pyrenophora teres)	Efficacy (Sphaerotheca fuliginea)	Efficacy (Alternaria solani)
C[Si](C)(CNC(=O)c1cccnc1Cl)c1ccccc1 [Example 3]	2.61	90%	75%			
C[Si](C)(CNC(=O)c1nccnc1C(F)(F)F)c1ccccc1 [Example 7]	3.15	93%		100%		
C[Si](C)(CN(C(=O)c1nccnc1C(F)(F)F)C1CC1)c1ccccc1 [Example 9]	4.13	86%		100%		
Cc1ccccc1[Si](C)(C)CN(C(=O)c1cccnc1Cl)C1CC1 [Example 13]	3.80	97%		100%		
C[Si](C)(CN(C(=O)c1cccnc1C(F)(F)F)C1CC1)c1ccccc1F [Example 15]	3.96	71%	75%	100%	72%	
C[Si](C)(CN(C(=O)c1cccnc1Cl)C1CC1)c1ccccc1F [Example 17]	3.58	79%		86%		
CCc1ccccc1[Si](C)(C)CN(C(=O)c1nccnc1C(F)(F)F)C1CC1 [Example 21]	4.77	86%	75%	100%	98%	
C[Si](C)(CN(C(=O)c1cccnc1C(F)F)C1CC1)c1ccccc1Cl [Example 28]	3.83			100%		89%
C[Si](C)(CNC(=O)c1cccnc1C(F)F)c1cccc(Cl)c1 [Example 29]	3.15			95%		95%
CC[Si](C)(CN(C(=O)c1cccnc1Cl)C1CC1)c1ccccc1Cl (stereo not drawn) [Example 38]	4.34	80%				
C[Si](C)(CNC(=O)c1cccnc1C(F)(F)F)c1ccccc1Cl [Example 39]	3.25	96%				
C[Si](C)(CNC(=O)c1cccnc1Cl)c1ccccc1Cl [Example 40]	2.94	96%				
C[Si](C)(CNC(=O)c1nccnc1C(F)(F)F)c1ccccc1Cl [Example 41]	3.50	90%			78%	
C[Si](C)(CN(C(=O)c1cccnc1C(F)F)C1CC1)c1cc(F)ccc1Cl [Example 51]	3.89	100%	88%	97%		
C[Si](C)(CN(C(=O)c1nccnc1C(F)(F)F)C1CC1)c1ccccc1C(F)(F)F [Example 54]	4.61	93%		100%	83%	
C[Si](C)(CN(C(=O)c1cccnc1C(F)(F)F)C1CC1)c1ccccc1C(F)(F)F [Example 55]	4.39	64%		97%		
C[Si](C)(CNC(=O)c1cccnc1C(F)F)c1cc(Cl)cc(Cl)c1 [Example 63]	3.69	96%	97%	95%	71%	95%
C[Si](C)(CN(C(=O)c1cccnc1C(F)F)C1CC1)c1ccsc1 [Example 87]	3.27			100%		88%
C[Si](C)(CN(C(=O)c1cccnc1C(F)(F)F)C1CC1)c1ccsc1 [Example 91]	3.72			70%		78%
C[Si](C)(Cc1cccc(Cl)c1)CN(C(=O)c1cccnc1C(F)F)C1CC1 [Example 104]	4.16			80%		90%
C[Si](C)(Cc1ccc(Cl)cc1Cl)CN(C(=O)c1cccnc1C(F)F)C1CC1 [Example 110]	4.74			95%		70%
C[Si](C)(Cc1cc(Cl)cc(Cl)c1)CN(C(=O)c1cccnc1C(F)F)C1CC1 [Example 117]	4.77			90%		75%
